The values that follow come from US10351553B2, “Potassium channel modulators” (Cadent Therapeutics, Inc., priority 2017, dated 2019).

Values after ≈ are worked out from the molar mass of the structure shown.

Data set [1] can be described thus: Metabolic stability in liver microsomes, mouse. Particulars: % remaining at 1 hour; 1 μM. Format: in vitro ADME. How it is done: (§1) Metabolic stability profiling of the compounds was performed in liver microsomes. In this assay, test compound is incubated with liver microsomes in the presence of NADPH for 2 time points at 37° C. At the end of incubation, reaction is quenched with acetonitrile containing internal standard and the parent compound remaining is determined by LC-MS/MS. Conditions used in the assay are summarized below. […], 37° C. • Test concentration: 1 μM in 0.02% DMSO at pH 7.4 (n=2) • NADPH concentration in assay: 1 mM • Liver microsome protein concentration in assay: 0.5 mg/ml • Analysis: LC-MS/MS • Data reported: % Parent Compound Remaining (% PCR) • Reference compounds for high and low clearance are included • Species tested: mouse, rat, dog, monkey, and human

Data set [2] is described as follows: Metabolic stability in liver microsomes, rat. Format: in vitro ADME. The conditions noted are these: % remaining at 1 hour; 1 μM. How it is done: as §1
Data set [3] has as its target T1, CYP2D6 (Homo sapiens, UniProt P10635).
T1 construct: Matrix: Human Liver Microsome (Invitrogen, life technologies); tissue Invitrogen, life technologies; host or cells: human liver microsomes
Description: CYP inhibition in human liver microsome, CYP2D6 (Bufuralol). The data set is classed as in vitro ADME. How it is done:
(§2) Compounds described herein were tested for CYP inhibition across 5 isoforms (3A4, 2D6, 2C9, 2C19 & 1A2). In this assay, CYP isoform specific substrates are incubated with human liver microsome (HLM) in the presence of test compounds, and metabolite formation is determined. Percentage inhibition of metabolite formation at different concentrations of test compound is calculated and IC50 is determined. Conditions used in the assay are summarized below. Results are shown in Table 2. • Test drug (Inhibitor) Concentration: 8 different concentrations (100 μM to 0.005 μM) • Matrix: Human Liver Microsome (Invitrogen, life technologies) • Specific probe substrates will be used for the isoforms as given below: • CYP3A4: Midazolam • CYP2D6: Bufuralol • CYP2C9: Diclofenac • CYP2C19: Mephynitoin • CYP1A2: Phenacetin • Cofactors: NADPH (1 mM final in assay) • Sample Analysis: LC-MS/MS (metabolites) • Specific reference inhibitors included in all assays (Ketoconazole/Quinidine/Sulphaphenazole/Ticlopidine/Furafylline) • Buffer: Potassium Phosphate Buffer (100 mM) pH 7.4 • DMSO level in assay: 0.1% • Data analysis: % Inhibition over control
Background: Liver microsomes are a subcellular fraction often used to study metabolism.

Data set [4] is described as follows: Metabolic stability in liver microsomes, dog. The data set is classed as in vitro ADME. Particulars: % remaining at 1 hour; 1 μM. How it is done: as §1
Data set [5] concerns the target T2, hERG (Homo sapiens, UniProt Q12809).
T2 construct: host or cells: HEK-293
The experiment in a line: Cardiac potassium channel hERG assay, whole-cell patch clamp in HEK-293 cells. Format: cell-based. The conditions noted are these: HEK-293 cells stably transfected with hERG; read-out: hERG inhibition (IC50). Here is the method: Compounds were tested in a cardiac potassium channel hERG assay. hERG is responsible for a rapid delayed rectifier current (IKr) in human ventricles. Inhibition of IKr is the most common cause of cardiac action potential prolongation by non-cardiac drugs. See e.g., Brown, A. M. and Rampe, D. (2000). Drug-induced long QT syndrome: is HERG the root of all evil? Pharmaceutical News 7, 15-20.
HEK-293 cells were stably transfected with hERG cDNA. Stable transfectants were selected by coexpression with the G418-resistance gene incorporated into the expression plasmid. Selection pressure was maintained by including G418 in the culture medium. Cells were cultured in Dulbecco's Modified Eagle Medium/Nutrient Mixture F-12 (D-MEM/F-12) supplemented with 10% fetal bovine serum, 100 U/mL penicillin G sodium, 100 μg/mL streptomycin sulfate and 500 μg/mL G418. Cell culture records are kept on file at Charles River Laboratories. […]
Onset and steady state inhibition of hERG current was measured using a pulse pattern with fixed amplitudes (conditioning prepulse: +20 mV for 2 s; test pulse: −50 mV for 2 s) repeated at 10 s intervals, from a holding potential of −80 mV. Peak tail current was measured during the 2 s step to −50 mV.
One test article concentration was applied to each cell (n=3). Peak current was measured during the test ramp. […] Peak current was measured until a new steady state was achieved.

Data set [6] is described as follows: Oral bioavailability in rat. Format: in vivo. The conditions noted are these: male, Sprague Dawley, plasma; 10 mg/kg PO, 0.5 mg/kg IV in rat. The text has this: Oral bioavailability data was collected in rat as follows.
Data set [7] concerns the target T3, CYP1A2 (Homo sapiens, UniProt P05177).
T3 construct: Matrix: Human Liver Microsome (Invitrogen, life technologies); tissue Invitrogen, life technologies; host or cells: human liver microsomes
T3 sequence (P05177 1-516): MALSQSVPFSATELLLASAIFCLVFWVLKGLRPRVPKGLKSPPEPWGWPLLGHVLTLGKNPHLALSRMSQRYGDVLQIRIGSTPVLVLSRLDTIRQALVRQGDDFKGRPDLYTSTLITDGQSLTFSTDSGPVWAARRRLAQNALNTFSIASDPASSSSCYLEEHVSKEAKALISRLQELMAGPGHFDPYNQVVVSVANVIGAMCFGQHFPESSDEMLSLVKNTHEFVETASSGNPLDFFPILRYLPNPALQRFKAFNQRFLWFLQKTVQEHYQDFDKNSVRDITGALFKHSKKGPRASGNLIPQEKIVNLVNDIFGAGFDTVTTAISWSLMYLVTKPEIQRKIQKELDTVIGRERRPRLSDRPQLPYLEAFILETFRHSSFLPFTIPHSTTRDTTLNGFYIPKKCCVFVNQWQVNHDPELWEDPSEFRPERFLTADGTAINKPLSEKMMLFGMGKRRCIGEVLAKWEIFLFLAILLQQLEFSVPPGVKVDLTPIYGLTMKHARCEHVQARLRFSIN
Description: CYP inhibition in human liver microsome, CYP1A2 (Phenacetin). The data set is classed as in vitro ADME. How it is done: as §2

Data set [8] in a line: Aqueous (kinetic) solubility, shake-flask, phosphate buffer pH 7.4. Format: physicochemical. The conditions noted are these: 23 °C, kinetic from dmso stock, phosphate buffer pH 7.4, 16 hours at room temperature. Here is the method:
Aqueous solubility (kinetic solubility) tests of the compounds were performed in phosphate buffer saline (pH 7.4) measured by shake-flask method. In this assay, DMSO stock solution of test compound is added to buffer followed by equilibration (shaking), filtration and determination of soluble amount by HPLC-UV Conditions used in the assay are summarized below.

The nature of data set [9]: Metabolic stability in liver microsomes, human. Format: in vitro ADME. Particulars: % remaining at 1 hour; 1 μM. How it is done:
as §1

T1 sequence (P10635 whole entry): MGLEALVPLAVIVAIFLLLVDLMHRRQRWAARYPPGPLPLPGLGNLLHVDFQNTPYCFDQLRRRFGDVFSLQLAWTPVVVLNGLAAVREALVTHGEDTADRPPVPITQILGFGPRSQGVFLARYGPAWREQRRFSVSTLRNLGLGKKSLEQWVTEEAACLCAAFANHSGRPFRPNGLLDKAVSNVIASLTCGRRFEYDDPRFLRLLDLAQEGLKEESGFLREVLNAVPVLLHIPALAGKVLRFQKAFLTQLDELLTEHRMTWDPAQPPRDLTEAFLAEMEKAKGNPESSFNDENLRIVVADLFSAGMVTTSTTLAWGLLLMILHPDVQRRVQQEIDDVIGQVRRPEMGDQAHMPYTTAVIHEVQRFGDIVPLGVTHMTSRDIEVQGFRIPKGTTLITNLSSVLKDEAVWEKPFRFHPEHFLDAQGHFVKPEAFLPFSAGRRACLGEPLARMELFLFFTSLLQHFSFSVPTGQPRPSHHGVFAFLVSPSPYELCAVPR
T2 sequence (Q12809 whole entry): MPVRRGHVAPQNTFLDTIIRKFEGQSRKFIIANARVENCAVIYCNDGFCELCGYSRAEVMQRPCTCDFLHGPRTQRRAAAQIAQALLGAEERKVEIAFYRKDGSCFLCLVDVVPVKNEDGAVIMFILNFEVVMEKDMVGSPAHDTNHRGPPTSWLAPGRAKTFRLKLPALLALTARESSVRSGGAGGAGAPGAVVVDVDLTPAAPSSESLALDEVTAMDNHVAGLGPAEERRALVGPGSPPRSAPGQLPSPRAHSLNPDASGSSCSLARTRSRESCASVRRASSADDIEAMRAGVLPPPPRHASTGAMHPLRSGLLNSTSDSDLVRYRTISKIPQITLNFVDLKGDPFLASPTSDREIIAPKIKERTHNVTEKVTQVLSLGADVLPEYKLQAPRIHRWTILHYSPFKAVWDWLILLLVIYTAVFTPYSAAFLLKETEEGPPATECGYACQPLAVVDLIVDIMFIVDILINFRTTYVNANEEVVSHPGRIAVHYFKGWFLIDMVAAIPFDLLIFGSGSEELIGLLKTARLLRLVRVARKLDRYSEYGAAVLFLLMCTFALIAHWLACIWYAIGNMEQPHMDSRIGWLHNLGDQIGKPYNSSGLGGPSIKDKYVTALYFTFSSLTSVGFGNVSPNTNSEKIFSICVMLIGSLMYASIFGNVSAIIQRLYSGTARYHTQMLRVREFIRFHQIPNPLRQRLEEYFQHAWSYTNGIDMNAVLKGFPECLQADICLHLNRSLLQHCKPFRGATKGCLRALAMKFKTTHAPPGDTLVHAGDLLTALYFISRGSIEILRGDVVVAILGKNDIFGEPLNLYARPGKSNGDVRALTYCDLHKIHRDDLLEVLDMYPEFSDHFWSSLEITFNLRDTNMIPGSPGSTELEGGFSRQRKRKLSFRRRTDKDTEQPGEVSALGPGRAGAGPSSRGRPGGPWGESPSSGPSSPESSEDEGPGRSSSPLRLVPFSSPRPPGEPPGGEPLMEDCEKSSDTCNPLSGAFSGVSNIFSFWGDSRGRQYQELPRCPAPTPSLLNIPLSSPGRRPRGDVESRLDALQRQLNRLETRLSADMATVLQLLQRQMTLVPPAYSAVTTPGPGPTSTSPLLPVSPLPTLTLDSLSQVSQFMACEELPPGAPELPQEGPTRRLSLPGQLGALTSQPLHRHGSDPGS

`Cc1ccn(-c2nc(NC3CCC(F)(F)CC3)cc(N3CCOCC3)n2)n1` [Compound 1, N-(4,4-difluorocyclohexyl)-2-(3-methyl-1H-pyrazol-1-yl)-6-morpholinopyrimidin-4-amine]: in data set [1], the “Liver microsome stability, Mouse” value came out at 47%. In data set [2], the “Liver microsome stability, Rat” value was 60%. Moreover, the IC50 in data set [3], in [5] and in data set [7] was above 10 µM each time. Also, the “Liver microsome stability, Dog” value in data set [4] was found to be 54%. In addition, in data set [6], the bioavailability was 81%. The same compound came in with a kinetic solubility at 16 h in data set [8] of 74 µg/mL (≈ 196 µM). Also, the “Liver microsome stability, Human” value in data set [9] is 84%.
As to `Cc1cc(NC2CCCCC2)nc(-n2nc(C)cc2C)n1` [Comparator A, reference compound], in [1], the “Liver microsome stability, Mouse” value turned out to be 1%. In addition, in data set [2], the “Liver microsome stability, Rat” value was determined as 1%. Besides, the IC50 was 0.79 µM in data set [3], above 10 µM in [5] and 0.64 µM in data set [7]. Moreover, the “Liver microsome stability, Dog” value in data set [4] worked out at 2%. The compound also displayed a bioavailability in data set [6] of 5%. In data set [8], this compound registered a solubility (kinetic) at 16 h of 17 µg/mL (≈ 59.6 µM). Further, in data set [9], the “Liver microsome stability, Human” value stood at 50%.

As a reminder, the IC50 is the concentration that gives 50% inhibition. A word on the bioavailability: it is the share of a dose that reaches the circulation, judged against a reference dose that is usually intravenous. Read a low bioavailability as poor availability. By solubility (kinetic) is commonly meant solubility judged after dilution from a stock solution rather than from solid.
